Laboratory results reported in US20250304542A1, “Fused Heterobicyclic Antiviral Agents” (Enanta Pharmaceuticals, Inc., priority 2024, published 2025).
Where two headings read alike, the source gives them in different places.

Key:
[1] = target: T1, NTCP (Homo sapiens, UniProt Q14973); assay: HepG2-NTCP preS1 Binding Competition Assay; conditions: HepG2-NTCP cells pre-treated 2 hours, FITC-labeled myristoylated preS1 peptide co-incubated 30 minutes, cell-surface fluorescence; read-out: Cellular EC50
T1 construct: expressed in transfected cells; host or cells: HepG2-NTCP (A3 clone, kept under puromycin)
T1 sequence (Q14973 1-349): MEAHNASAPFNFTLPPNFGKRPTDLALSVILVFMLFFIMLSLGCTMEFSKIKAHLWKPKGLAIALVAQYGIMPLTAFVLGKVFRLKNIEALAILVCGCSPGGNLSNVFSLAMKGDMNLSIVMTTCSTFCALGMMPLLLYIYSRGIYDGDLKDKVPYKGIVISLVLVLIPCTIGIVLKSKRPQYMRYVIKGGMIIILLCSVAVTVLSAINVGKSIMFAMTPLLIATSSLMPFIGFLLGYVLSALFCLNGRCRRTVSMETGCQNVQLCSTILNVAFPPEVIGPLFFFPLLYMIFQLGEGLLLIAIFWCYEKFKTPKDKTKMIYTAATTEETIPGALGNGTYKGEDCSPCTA
Description: Myristoylated preS1 peptide (2-48 aa) conjugated to a C-terminal FITC tag was synthesized to evaluate preS1 binding to NTCP-expressing cells. HepG2-NTCP cells seeded in 384-wells were pre-treated with compounds for 2 hours prior to the addition of FITC-labeled preS1 peptide. After co-incubation for 30 minutes, unbound FITC-preS1 peptide was washed twice with PBS, and the fluorescence of preS1-FITC bound to cell surface was detected by Envision plate reader. EC50 ranges are as follows: A<0.1 μM; B 0.1-1 μM; C>1 μM. A dash (-) indicates the compound was not tested.

[2] = test system: HBV; assay: HBV Infection in HepG2-NTCP Cells (HBeAg AlphaLISA); assay type: cell-based; conditions: Hepatitis B virus, 192 h
Description: HepG2-NTCP A3 cells were maintained in DMEM media supplemented with GlutaMAX™, 10% fetal bovine serum, 1% penicillin/streptomycin, and 5 μg/mL puromycin at 37° C. in a humidified atmosphere with 5% CO2 in a collagen-coated tissue culture flask.
HepG2-NTCP cells were seeded in 384 well plate containing 16,000 cells/well two days prior to the infection. On the day of infection, compounds were 3-fold serially diluted in DMSO and pre-incubated with HepG2-NTCP cells for two hours before purified HBV addition. HBV infection was carried out at 2000 GE/cell with 4% PEG, and the final concentration of DMSO is 0.5%. On day one post infection, HBV-containing media was aspirated, cells were washed once with PBS and then maintained in 2.5% DMSO containing media for the remainder of the assay.
Supernatants from infected HepG2-NTCP cells were collected at day 8 post infection, and the amount of viral antigen HBeAg was measured by HBeAg AlphaLISA detection kit (PerkinElmer) following the manufacturer's recommended protocol. Irrespective of readout, compound concentrations that reduce viral product accumulation in supernatants by 50% relative to DMSO controls (EC50) are reported. EC50 ranges are as follows: A<0.1 μM; B 0.1-1 μM; C>1 μM. A dash (-) indicates the compound was not tested.

| Compound | EC50 [1] [nM] | EC50 ([2]; read-out: Cellular EC50 (μM)) [µM] | EC50 ([2]; HBV-infected HepG2-NTCP cells, HBeAg in supernatants at day 8 post infection, 50% reduction relative to DMSO controls, read-out: Cellular EC50) [µM] |
| --- | --- | --- | --- |
| CN1[C@H](C2CCCCC2)CN(c2ccccc2)c2cc(Cl)c(CC[C@H](NC(=O)OCc3ccccc3)C(=O)O)cc2S1(=O)=O [Example 22] | 100 to 1000 | 0.1 to 1 | – |
| CN1[C@H](C2CCCCC2)CN(c2ccccc2)c2cc(Cl)c(C#CC3(C(=O)O)CC3)cc2S1(=O)=O [Example 5] | 100 to 1000 | < 0.1 | – |
| CNc1cc2c(cc1C(=O)N[C@H](C(=O)O)c1cccc(Cl)c1)S(=O)(=O)N(C)[C@H](C1CCCCC1)CN2c1ccccc1 [Example 45] | < 100 | < 0.1 | – |
| CN1[C@H](C2CCCCC2)CN(c2ccccc2)c2cc(Cl)c(CCC3(C(=O)O)CC3)cc2S1(=O)=O [Example 6] | 100 to 1000 | < 0.1 | – |
| CN1[C@H](C2CCCCC2)CN(c2ccccc2)c2cc(F)c(CCCC(=O)O)cc2S1(=O)=O [Example 7] | 100 to 1000 | 0.1 to 1 | – |
| CN1[C@H](C2CCCCC2)CN(c2ccccc2)c2cc(Cl)c(CCC(C)(C)C(=O)O)cc2S1(=O)=O [Example 2, (R)-4-(7-chloro-3-cyclohexyl-2-methyl-1,1-dioxido-5-phenyl-2,3,4,5-tetrahydrobenzo[f][1,2,5]thiadiazepin-8-yl)-2,2-dimethylbutanoic acid] | < 100 | < 0.1 | – |
| CCCCN(C)C(=O)C(=O)N[C@@H](CCc1cc2c(cc1Cl)N(c1ccccc1)C[C@@H](C1CCCCC1)N(C)S2(=O)=O)C(=O)O [Example 32, (S)-2-(2-(butyl(methyl)amino)-2-oxoacetamido)-4-((R)-7-chloro-3-cyclohexyl-2-methyl-1,1-dioxido-5-phenyl-2,3,4,5-tetrahydrobenzo[f][1,2,5]thiadiazepin-8-yl)butanoic acid] | < 100 | < 0.1 | – |
| CCCCNC(=O)C(=O)N[C@@H](CCc1cc2c(cc1Cl)N(c1ccccc1)C[C@@H](C1CCCCC1)N(C)S2(=O)=O)C(=O)O [Example 34] | < 100 | < 0.1 | – |
| CN1[C@H](C2CCCCC2)CN(c2ccccc2)c2cc(Cl)c(OCC(C)(C)C(=O)O)cc2S1(=O)=O [Example 38, (R)-3-((7-chloro-3-cyclohexyl-2-methyl-1,1-dioxido-5-phenyl-2,3,4,5-tetrahydrobenzo[f][1,2,5]thiadiazepin-8-yl)oxy)-2,2-dimethylpropanoic acid] | – | – | 0.1 to 1 |
| CC(C)CS(=O)(=O)N[C@H](CCc1cc2c(cc1Cl)N(c1ccccc1)C[C@@H](C1CCCCC1)N(C)S2(=O)=O)C(=O)O [Example 29] | < 100 | 0.1 to 1 | – |
| CN1[C@H](C2CCCCC2)CN(c2ccccc2)c2cc(Cl)c(CC[C@H](NC(=O)OC(C)(C)C)C(=O)O)cc2S1(=O)=O [Example 12, (S)-2-((tert-butoxycarbonyl)amino)-4-((R)-7-chloro-3-cyclohexyl-2-methyl-1,1-dioxido-5-phenyl-2,3,4,5-tetrahydrobenzo[f][1,2,5]thiadiazepin-8-yl)butanoic acid] | < 100 | < 0.1 | – |
| CN1[C@H](C2CCCCC2)CN(c2ccccc2)c2cc(Cl)c(C#CC(C)(C)C(=O)O)cc2S1(=O)=O [Example 1, (R)-4-(7-chloro-3-cyclohexyl-2-methyl-1,1-dioxido-5-phenyl-2,3,4,5-tetrahydrobenzo[f][1,2,5]thiadiazepin-8-yl)-2,2-dimethylbut-3-ynoic acid] | < 100 | < 0.1 | – |
| CN1[C@H](C2CCCCC2)CN(c2ccccc2)c2cc(Cl)c(CC[C@@H](NC(=O)OC(C)(C)C)C(=O)O)cc2S1(=O)=O [Example 13] | < 100 | < 0.1 | – |
| CC(C)COC(=O)N[C@@H](CCc1cc2c(cc1Cl)N(c1ccccc1)C[C@@H](C1CCCCC1)N(C)S2(=O)=O)C(=O)O [Example 14, (S)-4-((R)-7-chloro-3-cyclohexyl-2-methyl-1,1-dioxido-5-phenyl-2,3,4,5-tetrahydrobenzo[f][1,2,5]thiadiazepin-8-yl)-2-((isobutoxycarbonyl)amino)butanoic acid] | 100 to 1000 | < 0.1 | – |
| CC(C)Oc1cccc(COc2cc3c(cc2C#CC2(C(=O)O)CC2)S(=O)(=O)N(C)[C@H](C2CCCCC2)CN3c2ccccc2)c1 [Example 11, (R)-1-((3-cyclohexyl-7-((3-isopropoxybenzyl)oxy)-2-methyl-1,1-dioxido-5-phenyl-2,3,4,5-tetrahydrobenzo[f][1,2,5]thiadiazepin-8-yl)ethynyl)cyclopropane-1-carboxylic acid] | 100 to 1000 | < 0.1 | – |
| CCCCN(C)C(=O)C(=O)N[C@H](CCc1cc2c(cc1Cl)N(c1ccccc1)C[C@@H](C1CCCCC1)N(C)S2(=O)=O)C(=O)O [Example 33] | 100 to 1000 | 0.1 to 1 | – |
| CN1[C@H](C2CCCCC2)CN(C2CCCCC2)c2cc(Cl)c(CCC(C)(C)C(=O)O)cc2S1(=O)=O [Example 4, (R)-4-(7-chloro-3,5-dicyclohexyl-2-methyl-1,1-dioxido-2,3,4,5-tetrahydrobenzo[f][1,2,5]thiadiazepin-8-yl)-2,2-dimethylbutanoic acid] | < 100 | 0.1 to 1 | – |
| CCCCCOC(=O)N[C@@H](CCc1cc2c(cc1Cl)N(c1ccccc1)C[C@@H](C1CCCCC1)N(C)S2(=O)=O)C(=O)O [Example 16] | 100 to 1000 | 0.1 to 1 | – |
| CN1[C@H](C2CCCCC2)CN(C2CCCCC2)c2ccc(CCC(C)(C)C(=O)O)cc2S1(=O)=O [Example 3, (R)-4-(3,5-dicyclohexyl-2-methyl-1,1-dioxido-2,3,4,5-tetrahydrobenzo[f][1,2,5]thiadiazepin-8-yl)-2,2-dimethylbutanoic acid] | < 100 | 0.1 to 1 | – |
| CNc1cc2c(cc1C(=O)N[C@H](C(=O)O)C1CCCCC1)S(=O)(=O)N(C)[C@H](C1CCCCC1)CN2c1ccccc1 [Example 41] | < 100 | < 0.1 | – |
| CNc1cc2c(cc1C(=O)N[C@H](C(=O)O)c1ccsc1)S(=O)(=O)N(C)[C@H](C1CCCCC1)CN2c1ccccc1 [Example 40] | < 100 | 0.1 to 1 | – |
| CC(C)COC(=O)N[C@H](CCc1cc2c(cc1Cl)N(c1ccccc1)C[C@@H](C1CCCCC1)N(C)S2(=O)=O)C(=O)O [Example 15] | 100 to 1000 | < 0.1 | – |
| CNc1cc2c(cc1C(=O)N[C@H](C(=O)O)c1ccc(C(F)(F)F)cc1)S(=O)(=O)N(C)[C@H](C1CCCCC1)CN2c1ccccc1 [Example 39, (S)-2-((R)-3-cyclohexyl-2-methyl-7-(methylamino)-1,1-dioxido-5-phenyl-2,3,4,5-tetrahydrobenzo[f][1,2,5]thiadiazepine-8-carboxamido)-2-(4-(trifluoromethyl)phenyl)acetic acid] | < 100 | < 0.1 | – |
| CCOC(=O)N[C@@H](CCc1cc2c(cc1Cl)N(c1ccccc1)C[C@@H](C1CCCCC1)N(C)S2(=O)=O)C(=O)O [Example 18] | 100 to 1000 | – | – |
